The results in this text go back to patent US9708336B2, “Metallo-beta-lactamase inhibitors” (priority 2014, dated 2017).

Usually IC50 stands for the midpoint of a concentration-inhibition curve.

The target in one assay is VIM-1 (Pseudomonas aeruginosa (strain ATCC 15692 / DSM 22644 / CIP 104116 / JCM 14847 / LMG 12228 / 1C / PRS 101 / PAO1), UniProt A0A0F7KYQ8). The assay is described as follows: Enzyme activity: determination of IC50, fluorescence assay with CCF2-FA substrate (VIM-1). The assay is classed as biochemical. The note with it: CCF2-FA fluorescence assay.
The next assay has as its target IMP-1 (Serratia marcescens, UniProt P52699). As to the kind of experiment: biochemical. The assay is classed as biochemical. The following applies: IMP-1 enzyme, CCF2-FA fluorescence assay; read-out: IMP-1 IC50.
For another assay, the target named is NDM-1 (Klebsiella pneumoniae, UniProt C7C422). As to the kind of experiment: biochemical. The format is biochemical. The following applies: NDM-1 enzyme, CCF2-FA fluorescence assay; read-out: NDM-1 IC50.
Assay [1] concerns Escherichia coli expressing NDM-1 (CLB30016). As to the kind of experiment: Antibiotic potentiation activity: synergistic concentration (MITC95) with imipenem, OD600 growth. The assay is classed as cell-based. The note with it: Escherichia coli expressing NDM-1 (CLB30016), 95% growth inhibition. Put shortly: (§1)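 Test compound was combined with 4 μg/ml imipenem (or optionally 1 μg/ml), or with no antibiotic, against saline-suspended colonies diluted 1:100 in 1.1×CAMHB. Strains were E. coli NDM-1, S. marcescens IMP-1 and K. pneumoniae VIM-1. Plates were incubated 22–24 h at 35 °C before absorbance (OD600) readout.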

For assay [2], the system named is Klebsiella pneumoniae expressing VIM-1 (IHMA599644). Described as above. The format is cell-based. The following applies: Klebsiella pneumoniae expressing VIM-1 (IHMA599644), 95% growth inhibition. In outline: as §1
Assay [3] concerns Serratia marcescens expressing IMP-1 (CL5741). The assay is described as above. The following applies: Serratia marcescens expressing IMP-1 (CL5741), 95% growth inhibition. The assay is classed as cell-based. Put shortly:
as §1

Setting [4] is: VIM-1 enzyme, read-out: VIM-1 IC50.

Each structure is given as a SMILES string. Like-named read-outs stand apart in the source and are kept apart here.

Sequence of NDM-1 (C7C422 whole entry, looked up, species assumed): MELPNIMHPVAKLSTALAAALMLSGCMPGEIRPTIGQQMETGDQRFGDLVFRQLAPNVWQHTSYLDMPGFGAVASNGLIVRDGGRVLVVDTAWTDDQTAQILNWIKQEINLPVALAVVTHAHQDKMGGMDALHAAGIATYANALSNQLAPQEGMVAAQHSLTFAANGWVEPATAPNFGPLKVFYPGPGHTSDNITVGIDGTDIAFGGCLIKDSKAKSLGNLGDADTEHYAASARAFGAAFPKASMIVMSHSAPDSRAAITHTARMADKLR
Sequence of IMP-1 (P52699 whole entry, looked up): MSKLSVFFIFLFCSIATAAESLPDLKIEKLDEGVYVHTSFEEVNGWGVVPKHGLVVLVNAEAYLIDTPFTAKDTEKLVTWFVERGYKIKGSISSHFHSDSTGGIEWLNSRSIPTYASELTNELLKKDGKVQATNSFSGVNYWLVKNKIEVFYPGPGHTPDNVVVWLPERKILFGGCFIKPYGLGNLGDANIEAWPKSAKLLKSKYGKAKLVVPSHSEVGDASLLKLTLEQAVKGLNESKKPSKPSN

For the compound `CN1CCC(NCc2ccc(-c3cccc(S(N)(=O)=O)c3-c3nnn[nH]3)cc2)C1=O` (stereo not drawn) [Example 349, 4′-{[(1-methyl-2-oxopyrrolidin-3-yl)amino]methyl}-2-(1H-tetrazol-5-yl)biphenyl-3-sulfonamide], the concentration for half-maximal inhibition (IC50) at VIM-1 (VIM-1 IC50, VIM-1 enzyme) was determined as 637 nM; at IMP-1, 61.1 nM; on NDM-1 it was 4.32 nM. For the same compound, the “Escherichia coli MITC95” value in assay [1] amounted to 6.25 µM. Besides, the “Klebsiella pneumoniae MITC95” value in assay [2] was above 200 µM. In addition, the “Serratia marcescens MITC95” value in assay [3] was found to be 2.344 µM.
As for `NS(=O)(=O)c1cccc(-c2ccc(CNCCn3ccnn3)cc2)c1-c1nnn[nH]1` [Example 350, 2-(1H-tetrazol-5-yl)-4′-({[2-(1H-1,2,3-triazol-1-yl)ethyl]amino}methyl)biphenyl-3-sulfonamide], the concentration for half-maximal inhibition (IC50) was 246 nM at VIM-1 (setting [4]), 39.7 nM at IMP-1 and 5.8 nM at NDM-1. Further, in assay [1], the “Escherichia coli MITC95” value worked out at 1.172 µM. For the same compound, in assay [2], the “Klebsiella pneumoniae MITC95” value was above 200 µM. Also, the “Serratia marcescens MITC95” value in assay [3] worked out at 1.563 µM.
Turning to `CC(O)C1CCN(Cc2ccc(-c3cccc(S(N)(=O)=O)c3-c3nnn[nH]3)cc2)C1` (stereo not drawn) [Example 351, 4′-{[3-(1-hydroxyethyl)pyrrolidin-1-yl]methyl}-2-(1H-tetrazol-5-yl)biphenyl-3-sulfonamide], the concentration for half-maximal inhibition (IC50) is 414 nM on VIM-1 (setting [4]), 332 nM on IMP-1 and 18.1 nM on NDM-1. For the same compound, the “Escherichia coli MITC95” value in assay [1] turned out to be 1.563 µM. For the same compound, the “Klebsiella pneumoniae MITC95” value in assay [2] worked out at 150 µM. In addition, the “Serratia marcescens MITC95” value in assay [3] worked out at 3.125 µM.
As for `CCN1CCC(NCc2ccc(-c3cccc(S(N)(=O)=O)c3-c3nnn[nH]3)cc2)CC1` [Example 352, 4′-{[(1-ethylpiperidin-4-yl)amino]methyl}-2-(1H-tetrazol-5-yl)biphenyl-3-sulfonamide], the IC50 came to 916 nM on VIM-1 (setting [4]), 547 nM on IMP-1 and 38 nM on NDM-1. Further, in assay [1], the “Escherichia coli MITC95” value is 1.563 µM. Further, the “Klebsiella pneumoniae MITC95” value in assay [2] was above 200 µM. In assay [3], the “Serratia marcescens MITC95” value turned out to be 6.25 µM.
As for `CC(NCc1ccc(-c2cccc(S(N)(=O)=O)c2-c2nnn[nH]2)cc1)c1nn[nH]n1` (stereo not drawn) [Example 353, 2-(1H-tetrazol-5-yl)-4′-({[1-(2H-tetrazol-5-yl)ethyl]amino}methyl)biphenyl-3-sulfonamide], the IC50 on VIM-1 (VIM-1 IC50, VIM-1 enzyme) is 689 nM; on IMP-1 it was 28 nM; at NDM-1 it was 4.1 nM. The “Escherichia coli MITC95” value in assay [1] was 2.344 µM. For the same compound, the “Klebsiella pneumoniae MITC95” value in assay [2] is 100 µM. For the same compound, the “Serratia marcescens MITC95” value in assay [3] was determined as 1.172 µM.
For `Cc1cc(CNCc2ccc(-c3cccc(S(N)(=O)=O)c3-c3nnn[nH]3)cc2)n[nH]1` [Example 354, 4′-({[(5-methyl-1H-pyrazol-3-yl)methyl]amino}methyl)-2-(1H-tetrazol-5-yl)biphenyl-3-sulfonamide], the figures for the IC50 on VIM-1 (setting [4]), on IMP-1 and at NDM-1 were 325 nM, 16.4 nM and 7.33 nM, respectively. In addition, the “Escherichia coli MITC95” value in assay [1] came out at 2.344 µM. The “Klebsiella pneumoniae MITC95” value in assay [2] came to 200 µM. Also, the “Serratia marcescens MITC95” value in assay [3] worked out at 2.344 µM.
For `CN(C)C1CCC(NCc2ccc(-c3cccc(S(N)(=O)=O)c3-c3nnn[nH]3)cc2)CC1` (stereo not drawn) [Example 355, 4′-({[4-(dimethylamino)cyclohexyl]amino}methyl)-2-(1H-tetrazol-5-yl)biphenyl-3-sulfonamide], the concentration for half-maximal inhibition (IC50) was 869 nM on VIM-1 (setting [4]), 467 nM on IMP-1 and 14 nM on NDM-1. For the same compound, in assay [1], the “Escherichia coli MITC95” value came out at 1.563 µM. For the same compound, in assay [2], the “Klebsiella pneumoniae MITC95” value stood at 150 µM. Moreover, the “Serratia marcescens MITC95” value in assay [3] came out at 4.688 µM.
As for `CN(C)CCCCNCc1ccc(-c2cccc(S(N)(=O)=O)c2-c2nnn[nH]2)cc1` [Example 356, 4′-({[4-(dimethylamino)butyl]amino}methyl)-2-(1H-tetrazol-5-yl)biphenyl-3-sulfonamide], the half-maximal inhibitory concentration (IC50) is 646 nM on VIM-1 (setting [4]), 1540 nM at IMP-1 and 24.1 nM on NDM-1. The “Escherichia coli MITC95” value in assay [1] was determined as 1.563 µM. The “Klebsiella pneumoniae MITC95” value in assay [2] turned out to be 75 µM. Moreover, the “Serratia marcescens MITC95” value in assay [3] was 12.5 µM.
Turning to `C[C@@H](O)[C@H](NCc1ccc(-c2cccc(S(N)(=O)=O)c2-c2nnn[nH]2)cc1)C(=O)O` [Example 357, N-{[3′-sulfamoyl-2′-(1H-tetrazol-5-yl)biphenyl-4-yl]methyl}-L-threonine], the IC50 was determined as 287 nM at VIM-1 (setting [4]), 182 nM on IMP-1 and 12.5 nM on NDM-1. The “Escherichia coli MITC95” value in assay [1] was determined as 3.125 µM. Also, the “Klebsiella pneumoniae MITC95” value in assay [2] was 25 µM. Also, in assay [3], the “Serratia marcescens MITC95” value amounted to 4.688 µM.
With `CC(NCc1ccc(-c2cccc(S(N)(=O)=O)c2-c2nnn[nH]2)cc1)C(=O)O` (stereo not drawn) [Example 358, N-{[3′-sulfamoyl-2′-(1H-tetrazol-5-yl)biphenyl-4-yl]methyl}alanine], the concentration for half-maximal inhibition (IC50) stood at 387 nM against VIM-1 (VIM-1 IC50, VIM-1 enzyme); 288 nM on IMP-1; 32.8 nM on NDM-1. In addition, in assay [1], the “Escherichia coli MITC95” value was determined as 3.125 µM. The “Klebsiella pneumoniae MITC95” value in assay [2] was found to be 75 µM. Moreover, the “Serratia marcescens MITC95” value in assay [3] worked out at 4.688 µM.
Turning to `CNCC(C)NCc1ccc(-c2cccc(S(N)(=O)=O)c2-c2nn[nH]n2)cc1` (stereo not drawn) [Example 359, 4′-({[1-methyl-2-(methylamino)ethyl]amino}methyl)-2-(2H-tetrazol-5-yl)biphenyl-3-sulfonamide], the half-inhibitory concentration (IC50) on VIM-1 (setting [4]) came to 1870 nM; at IMP-1, 104 nM; at NDM-1 it was 13 nM. Moreover, the “Escherichia coli MITC95” value in assay [1] was 4.688 µM. Further, the “Klebsiella pneumoniae MITC95” value in assay [2] was above 200 µM. The “Serratia marcescens MITC95” value in assay [3] worked out at 3.125 µM.
In the case of `Cc1nc(CNCc2ccc(-c3cccc(S(N)(=O)=O)c3-c3nnn[nH]3)cc2)no1` [Example 360, 4′-({[(5-methyl-1,2,4-oxadiazol-3-yl)methyl]amino}methyl)-2-(1H-tetrazol-5-yl)biphenyl-3-sulfonamide], the values for the IC50 on VIM-1 (setting [4]), on IMP-1 and at NDM-1 were 232 nM, 37.6 nM and 1.52 nM, respectively. In addition, the “Escherichia coli MITC95” value in assay [1] came to 2.344 µM. In addition, the “Klebsiella pneumoniae MITC95” value in assay [2] was above 200 µM. Also, the “Serratia marcescens MITC95” value in assay [3] turned out to be 2.344 µM.
In the case of `CN(CCC(=O)O)Cc1ccc(-c2cccc(S(N)(=O)=O)c2-c2nnn[nH]2)cc1` [Example 361, N-methyl-N-{[3′-sulfamoyl-2′-(1H-tetrazol-5-yl)biphenyl-4-yl]methyl}-beta-alanine], the IC50 at VIM-1 (setting [4]) stood at 271 nM; on IMP-1, 139 nM; at NDM-1, 12.9 nM. Moreover, in assay [1], the “Escherichia coli MITC95” value is 2.344 µM. For the same compound, in assay [2], the “Klebsiella pneumoniae MITC95” value came to 25 µM. Also, the “Serratia marcescens MITC95” value in assay [3] worked out at 3.125 µM.
For `NC(=O)C1CN(Cc2ccc(-c3cccc(S(N)(=O)=O)c3-c3nnn[nH]3)cc2)C1` [Example 362, 1-{[3′-sulfamoyl-2′-(1H-tetrazol-5-yl)biphenyl-4-yl]methyl}azetidine-3-carboxamide], the IC50 was 494 nM at VIM-1 (VIM-1 IC50, VIM-1 enzyme); 116 nM on IMP-1; 11.3 nM on NDM-1. In addition, the “Escherichia coli MITC95” value in assay [1] is 0.7813 µM. Further, in assay [2], the “Klebsiella pneumoniae MITC95” value was found to be 75 µM. Besides, in assay [3], the “Serratia marcescens MITC95” value was found to be 3.125 µM.
